Legend:
[1] = MTT-based cell viability assay (EZ-CYTOX); conditions: human
Procedure: To order to study impacts of DGAT inhibitors on HCV genome replication independently of the particle production, we decided to examine effects of these twelve DGAT inhibitors on the levels of viral RNA genome and cell viability in parallel. […] Then, we treated them with an increasing concentration of each DGAT inhibitor. Then, luciferase and MTT-based cell viability assays were performed to determine EC50 and CC50 (cytotoxic concentration required to kill 50% of treated cells) values, respectively.
Cell viability was measured with EZ-CYTOX (10% tetrazolium salt; Dogen, Gyeonggi-do, Korea) as described previously. Anti-HCV replication analysis using a luciferase assay was conducted as previously described.

[2] = test system: HCV genotype 1b (Huh7.5-Bart79I); test: HCV genome replication in sub-genomic replicon Huh7.5-Bart79I cells by real-time RT-PCR
Procedure: Quantitative real-time RT-PCR analysis to measure levels of HCV RNA and GAPDH was conducted as previously described. The cDNA synthesis and reverse transcription of miR-122 were performed by using Taqman quantitative RT-PCR (qRT-PCR) analysis. Taqmanq RT-PCR components including TaqMan miR122 probe, endogenous control U6 probe, TaqMan® MicroRNA reverse transcription Kit and TaqMan® universal master mix II were purchased from Thermo Fisher Scientific (Waltham, MA, USA)

[3] = test system: HCV NS5A (Huh7.5-Bart79I, genotype 1b); test: western blot of HCV NS5A protein in Huh7.5-Bart79I cells; format: cell-based, hepatitis C virus
Procedure: Due to the tight coupling of viral genome replication to its protein expression, inhibition of viral RNA genome replication leads to a subsequent reduction of viral protein expression.
(A) Dose-dependent western blot analysis of Huh7.5-J6/JFH1 cells treated with increasing concentrations of 10j for 72 h by measuring protein expression levels of HCV NS3 relative to the β-actin. Daclatasvir, an NS5A inhibitor was used as a positive control. (B) Time-dependent western blot analysis of J6/JFH1 RNA-transfected Huh7.5 cells treated with 8 μM of 10j for increasing periods of time analyzed by measuring protein expression levels of HCV NS3 relative to the β-actin. (C,D) Same experiments were performed as in (A,B) to study effects of 10j on the expression levels of the NS5A protein of Huh7.5-Bart79I cells in a dose- as well as time-dependent manners.
Western blot analysis of Huh7.5-J6/JFH1 or Bart79I cells treated with 10j was conducted as previously described. Relative amounts of HNF4α proteins were quantified by using an HNF4α mouse monoclonal antibody (M04), clone 4E2 (Abnova) with the dilution of 1:1000.

[4] = test system: HCVcc particles (JFH1-NS5A-GFP); test: HCVcc infectivity and time-of-addition assay; format: cell-based, hepatitis C virus; conditions: pre-treatment (−2 h), co-treatment (0 h), post-treatment (+2 h); dose-dependent
Procedure: In order to test the effects of 10j on the early viral functions, such as the viral entry and uncoating of the viral genome, we performed the “time of addition” experiment by using the cell culture-derived infectious HCVcc particles (JFH1-NS5A-GFP) (Figure 4A).
The time-of-addition assay was conducted as previously reported [38]. Briefly, naïve Huh-7.5 cells were plated in 384-well plates and incubated with serially diluted 10j at specific time points during virus infection: pre-infection treatment; co-infection treatment; post-infection treatment. Afterwards, infected cells were incubated at 37 °C for 3 days in the presence of inhibitors. At 72 h post-infection, HCV infection rates and cytotoxicity were determined by the number of GFP positive cells and Hoechst 33,342 positive cell nuclei, a marker for cell viability, respectively, using fully automated confocal microscopy (Opera, PerkinElmer, Hamburg, Germany). The acquired images were analyzed by in-house developed software. Percentages of HCV inhibition were calculated using 1% DMSO-treated cells and 10 μM of sofosbuvir treated cells and were set to 0% and 100% inhibition, respectively. Experiments were conducted at least two-times independently and in triplicates.

[5] = test system: DGATs (rat liver microsome); design: method as in PMID 23141914, PMID 23242135; conditions: cited from earlier work
Huh7.5 cells [6] = test: TG quantification assay in Huh7.5 cells; format: cell-based; conditions: 8 μM, 72 h
Procedure: Cells were washed with cold PBS, suspended, and homogenized in 1 mL of 5% NP-40/ddH2O solution. Then, homogenized cells were slowly heated to 90 °C for 5 min or until the NP-40 becomes cloudy, then cooled down to room temperature. Previous step was repeated to solubilize all TG. Cells were centrifuged for 2 min at top speed using a microcentrifuge to remove any insoluble material. Samples were diluted 10-fold with ddH2O before proceeding with the assay. […] Samples were added with 50 μL of reaction mix into each well and incubated at room temperature for 60 min while protected from light. Fluorescence was measured by using a fluorometric reader with Ex/Em = 535/590 nm. The amount of TG from standard sample was calculated using the following equation: Ts=Corrected absorbance−(y−intercept)/slope The amount of intracellular TG was calculated using the following equation: Concentration=Ts/Sv*D where the Ts is the amount of TG from standard curve and Sv is the volume of sample added to sample wells and D is the sample dilution factor.

Huh7.5 cells [7] = test: visualization of intracellular LD by BODIPY in Huh7.5 cells; format: cell-based; conditions: 8 μM, 72 h
Procedure: Huh7.5 cells were incubated in a 24-well plate on top of coverslip in the presence of either DMSO, 8 μM of 10j, or 20 μM of A922500 for 72 h. Then, Huh7.5 cells were fixed by using 4% paraformaldehyde for 15 min and stained with 0.001% BODIPY 493/503 D3922 (Invitrogen, Carlsbad, CA, USA) for 10 min. The coverslips were mounted onto slides using Prolong Gold anti-fade reagent with DAPI (Invitrogen, Carlsbad, CA, USA) Fluorescence were examined and captured by Nikon confocal laser scanning microscopic system. LD content was quantified using the ImageJ program.

Huh7.5-J6/JFH1 cells = test: immunofluorescence of NS3 and LD (BODIPY) in Huh7.5-J6/JFH1 cells; format: cell-based, hepatitis C virus; conditions: 72 h
Procedure: Based on previous results, we noticed that EC50 values required for inhibition of the HCV genome replication by 10j were around 1–2 μM ranges (Figure 2 and Table 3). However, IC50 value required for inhibition of the enzymatic DGAT activities in vitro by 10j was reported to be higher than 5 μM (Table 2 and Figure 6E). Based on these observations, we hypothesized that inhibition of DGATs by 10j may not play a direct role in suppression of the viral genome replication. To test this hypothesis, we decided to study effects of 10j on DGAT and the viral genome replication in a simultaneous manner. […] Then, the viral NS3 protein and LDs were visualized by using an anti-NS3 antibody and BODIPY, respectively. […] Significant reduction of LD was only seen after treatment of 10j higher than 5 μM. In order to confirm this observation, we decided to utilize another HCV-positive cell—JFH1-NS5A-GFP cells—which were infected with infectious HCV genotype 2a particles with a visually tractable NS5A due to the presence of in-frame-fused GFP protein with NS5A. TGs of these cells were stained with ORO for visualization in parallel. […] In accordance with the previous result, reduction of the NS5A-GFP protein preceded decline of TG biosynthesis (Figure 7D).
Immunofluorescence analysis of Huh7.5-J6/JFH1 or Huh7.5-JFH1-5A-GFP cells in the presence of 10j was conducted as previously described. Fluorescence were examined and captured by Nikon confocal laser scanning microscopic system. LD content was quantified using the ImageJ program.

SMILES: O=C(NCc1ccco1)c1ccc2[nH]c(COc3ccc(C45CC6CC(CC(C6)C4)C5)cc3)nc2c1 [10j, 2-{[4-(adamant-1yl)phenoxy]methyl)-N-(furan-2-ylmethyl)-1H-benzo[d]imidazole-5-carboxamide]
- CC50 [1]: 38.9 µM
- T1/2, time required for reducing the viral RNAs by half ([2]; 8 μM, genotype 1b): 19.2 h
- EC50 ([2]; Hepatitis C virus, 72 h, read-out: EC50 HCV RNA, subgenomic replicon): 3.3 µM
- time required for reducing 50% of HCV protein expression (T1/2) ([3]; 10 μM of 10j, 8 μM (figure legend)): 37.4 h
- EC50 ([3]; Hepatitis C virus, NS5A, read-out: concentration required for reducing 50% of HCV protein expression (EC50)): 4.1 µM
- infection of Huh7.5 cells with HCVcc particles [4]: all abrogated
- IC50 [5]: 4.4 µM
- reduction of endogenous level of TG (Huh7.5 cells [6]): 83%
- reduction in the level of LDs (BODIPY) (Huh7.5 cells [7]): 49%
- concentration at which the viral NS3 protein started to disappear (Huh7.5-J6/JFH1 cells): 1 µM
- concentration for significant reduction of LD (Huh7.5-J6/JFH1 cells): higher than 5 μM
- LD levels (BODIPY) (Huh7.5-J6/JFH1 cells; up to 2 μM): stayed unaltered
